From US10175256B2, “Compositions and methods utilizing lysophosphatidylcholine scaffolds” (National University Of Singapore, priority 2013, dated 2019)
Several values for one entry are separate records, joined by “and”; a condition that tells them apart may be missing. Identical values can stand only once.

Target: T1, mouse Mfsd2a (Mus musculus, UniProt Q9DA75)
T1 construct: expressed in transfected cells; host or cells: HEK293
T1 sequence (Q9DA75 1-534): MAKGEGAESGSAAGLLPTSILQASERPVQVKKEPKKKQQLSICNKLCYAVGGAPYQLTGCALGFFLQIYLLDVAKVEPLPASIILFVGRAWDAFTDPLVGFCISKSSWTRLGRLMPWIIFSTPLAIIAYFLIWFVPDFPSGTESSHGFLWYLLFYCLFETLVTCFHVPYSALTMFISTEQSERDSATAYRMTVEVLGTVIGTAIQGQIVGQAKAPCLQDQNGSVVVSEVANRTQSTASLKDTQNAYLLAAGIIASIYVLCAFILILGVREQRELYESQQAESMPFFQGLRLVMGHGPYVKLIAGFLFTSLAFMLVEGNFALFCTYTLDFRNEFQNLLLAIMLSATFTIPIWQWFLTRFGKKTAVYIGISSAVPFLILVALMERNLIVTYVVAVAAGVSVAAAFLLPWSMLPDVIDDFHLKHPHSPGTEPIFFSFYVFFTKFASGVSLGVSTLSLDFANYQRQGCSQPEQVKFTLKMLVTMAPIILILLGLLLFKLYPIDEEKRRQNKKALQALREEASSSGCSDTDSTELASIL
Assay: Cell-based free fatty acid transport/uptake in Mfsd2a expressing HEK293 cells (mass spectrometry, TLC; Table 1)
Details: Mfsd2a expressing HEK293 cells incubated with 100 uM Arachidonic fatty acid/BSA complex overnight; MS; replicate columns
Protocol: (§1) FIG. 12. […] Std: free [^14C]-DHA. b. TLC analysis of phospholipids and neutral lipids of HEK293 cells transfected with mouse Mfsd2a and mutants after overnight incubation with 100 μM [^14C]-oleate. TLC protocol used was described in Methods. PC: phosphatidylcholine, PE: phosphatidylethanolamine, TAG: triglyceride, CE: cholesteryl ester.
(§2) For tissue lipid analysis, brain, liver, and heart of female WT and KO mice with age of 7-8 weeks born to HET mothers, and brains from e18.5 embryos were collected and immediately frozen with liquid nitrogen until extraction. Lipid extraction was followed by chloroform/methanol method. For cell-based free fatty acid transport, lipids from HEK293 cells expressing mouse Mfsd2a and mock controls after overnight treatment with 100 μM docosahexaenoic, arachidonic, eicosapentaenoic, alpha-linolenic, linoleic, oleic, palmitic acids in BSA complex were extracted using HIP buffer (hexane:iso-propanol 3:2, per volume) and dried under N2 gas. Phospholipid species were measured by high performance liquid chromatography (HPLC) 1100 system (Agilent) coupled with an Triple Quadrupole/Ion Trap mass spectrometer (4000Qtrap, Applied Biosystem). Levels of individual phospholipid species were analyzed as described previously and quantified using spiked internal standards that includes PC-14:0/14:0, PE-14:0/14:0, PS-14:0/14:0 (Avanti Polar Lipids, Alabaster, Ala., USA), and dioctanoyl PI (Echelon Biosciences, Inc., Salt Lake City, Utah, USA).

Structure (SMILES)	Amount of each lipid species, mol percent in total phospholipid analysed
CCCCCCCCCCCCCCCCCC(=O)OC[C@@H](O)COP(=O)(O)O[C@@H]1[C@H](O)[C@H](O)[C@@H](O)[C@H](O)[C@H]1O [LPI18:0]	0.02508 mol percent and 0.03053 mol percent and 0.02667 mol percent and 0.03031 mol percent
CCCCCCCCCCCCCCCC(=O)OC[C@@H](O)COP(=O)(O)OC1[C@H](O)[C@H](O)C(O)[C@H](O)[C@H]1O (some centres unmarked) [LPI 16:0]	0.003583 mol percent and 0.003359 mol percent and 0.003156 mol percent and 0.002319 mol percent

Same assay, conditions: Mfsd2a expressing HEK293 cells incubated with 100 uM Eicosapentaenoic fatty acid/BSA complex overnight; MS; replicate columns

Structure (SMILES)	Amount of each lipid species, mol percent in total phospholipid analysed
CCCCCCCCCCCCCCCC(=O)OC[C@@H](O)COP(=O)(O)OC1[C@H](O)[C@H](O)C(O)[C@H](O)[C@H]1O (some centres unmarked) [LPI16:0]	0.00427 mol percent and 0.002996 mol percent and 0.00331 mol percent and 0.004891 mol percent
CCCCCCCCCCCCCCCCCC(=O)OC[C@@H](O)COP(=O)(O)O[C@@H]1[C@H](O)[C@H](O)[C@@H](O)[C@H](O)[C@H]1O [LPI18:0]	0.02916 mol percent and 0.03081 mol percent and 0.03115 mol percent and 0.03571 mol percent

Same assay, conditions: Mfsd2a expressing HEK293 cells, 100 uM Alpha-linolenic fatty acid/BSA complex overnight; replicate columns

Structure (SMILES)	Amount of lipid species, mol percent in total phospholipid analysed
CCCCCCCCCCCCCCCC(=O)OC[C@@H](O)COP(=O)(O)OC1[C@H](O)[C@H](O)C(O)[C@H](O)[C@H]1O (some centres unmarked) [LPI16:0]	0.002614 mol percent and 0.002235 mol percent and 0.003861 mol percent and 0.003103 mol percent
CCCCCCCCCCCCCCCCCC(=O)OC[C@@H](O)COP(=O)(O)O[C@@H]1[C@H](O)[C@H](O)[C@@H](O)[C@H](O)[C@H]1O [LPI18:0]	0.03202 mol percent and 0.03143 mol percent and 0.03738 mol percent and 0.03614 mol percent

Same assay, conditions: Mfsd2a expressing HEK293 cells; 100 uM Docosahexaenoic acid/BSA complex overnight; MS; replicate columns

Structure (SMILES)	Amount of each lipid species normalized to internal standard, mol percent in total phospholipid analysed
CCCCCCCCCCCCCCCCCC(=O)OC[C@@H](O)COP(=O)(O)O[C@@H]1[C@H](O)[C@H](O)[C@@H](O)[C@H](O)[C@H]1O [LPI18:0]	0.03395 mol percent and 0.02821 mol percent and 0.03136 mol percent and 0.02514 mol percent

Same assay, conditions: Mfsd2a expressing HEK293 cells; 100 uM Linoleic fatty acid/BSA complex overnight; MS; replicate columns

Structure (SMILES)	Amount of lipid species, mol percent in total phospholipid analysed
CCCCCCCCCCCCCCCC(=O)OC[C@@H](O)COP(=O)(O)OC1[C@H](O)[C@H](O)C(O)[C@H](O)[C@H]1O (some centres unmarked) [LPI16:0]	0.002421 mol percent and 0.002583 mol percent and 0.004097 mol percent and 0.003665 mol percent
CCCCCCCCCCCCCCCCCC(=O)OC[C@@H](O)COP(=O)(O)O[C@@H]1[C@H](O)[C@H](O)[C@@H](O)[C@H](O)[C@H]1O [LPI18:0]	0.03216 mol percent and 0.02682 mol percent and 0.02809 mol percent and 0.04343 mol percent

Same assay, conditions: Mfsd2a expressing HEK293 cells; 100 uM Oleic fatty acid/BSA complex overnight; MS; replicate columns

Structure (SMILES)	Amount of lipid species, mol percent in total phospholipid analysed
CCCCCCCCCCCCCCCC(=O)OC[C@@H](O)COP(=O)(O)OC1[C@H](O)[C@H](O)C(O)[C@H](O)[C@H]1O (some centres unmarked) [LPI16:0]	0.003305 mol percent and 0.002531 mol percent and 0.002415 mol percent and 0.003238 mol percent
CCCCCCCCCCCCCCCCCC(=O)OC[C@@H](O)COP(=O)(O)O[C@@H]1[C@H](O)[C@H](O)[C@@H](O)[C@H](O)[C@H]1O [LPI18:0]	0.02837 mol percent and 0.02931 mol percent and 0.02721 mol percent and 0.02894 mol percent

Test system: mouse Mfsd2a
Assay: as above
Details: mock HEK293 cells incubated with 100 uM Arachidonic fatty acid/BSA complex overnight; MS; replicate columns
Protocol: as §1, §2

Structure (SMILES)	Amount of each lipid species, mol percent in total phospholipid analysed
CCCCCCCCCCCCCCCCCC(=O)OC[C@@H](O)COP(=O)(O)O[C@@H]1[C@H](O)[C@H](O)[C@@H](O)[C@H](O)[C@H]1O [LPI18:0]	0.03307 mol percent and 0.03421 mol percent and 0.02228 mol percent
CCCCCCCCCCCCCCCC(=O)OC[C@@H](O)COP(=O)(O)OC1[C@H](O)[C@H](O)C(O)[C@H](O)[C@H]1O (some centres unmarked) [LPI 16:0]	0.003611 mol percent and 0.003895 mol percent and 0.00338 mol percent

Same assay, conditions: mock HEK293 cells incubated with 100 uM Eicosapentaenoic fatty acid/BSA complex overnight; MS; replicate columns

Structure (SMILES)	Amount of each lipid species, mol percent in total phospholipid analysed
CCCCCCCCCCCCCCCC(=O)OC[C@@H](O)COP(=O)(O)OC1[C@H](O)[C@H](O)C(O)[C@H](O)[C@H]1O (some centres unmarked) [LPI16:0]	0.004685 mol percent and 0.004731 mol percent and 0.003589 mol percent
CCCCCCCCCCCCCCCCCC(=O)OC[C@@H](O)COP(=O)(O)O[C@@H]1[C@H](O)[C@H](O)[C@@H](O)[C@H](O)[C@H]1O [LPI18:0]	0.03631 mol percent and 0.04031 mol percent and 0.03846 mol percent

Same assay, conditions: mock HEK293 cells; 100 uM Docosahexaenoic acid/BSA complex overnight; MS; replicate columns

Structure (SMILES)	Amount of each lipid species normalized to internal standard, mol percent in total phospholipid analysed
CCCCCCCCCCCCCCCCCC(=O)OC[C@@H](O)COP(=O)(O)O[C@@H]1[C@H](O)[C@H](O)[C@@H](O)[C@H](O)[C@H]1O [LPI18:0]	0.0354 mol percent and 0.03721 mol percent and 0.03756 mol percent

Same assay, conditions: mock HEK293 cells; 100 uM Linoleic fatty acid/BSA complex overnight; MS; replicate columns

Structure (SMILES)	Amount of lipid species, mol percent in total phospholipid analysed
CCCCCCCCCCCCCCCC(=O)OC[C@@H](O)COP(=O)(O)OC1[C@H](O)[C@H](O)C(O)[C@H](O)[C@H]1O (some centres unmarked) [LPI16:0]	0.003029 mol percent and 0.004291 mol percent and 0.00407 mol percent
CCCCCCCCCCCCCCCCCC(=O)OC[C@@H](O)COP(=O)(O)O[C@@H]1[C@H](O)[C@H](O)[C@@H](O)[C@H](O)[C@H]1O [LPI18:0]	0.03365 mol percent and 0.03811 mol percent and 0.02692 mol percent

Same assay, conditions: mock HEK293 cells; 100 uM Oleic fatty acid/BSA complex overnight; MS; replicate columns

Structure (SMILES)	Amount of lipid species, mol percent in total phospholipid analysed
CCCCCCCCCCCCCCCC(=O)OC[C@@H](O)COP(=O)(O)OC1[C@H](O)[C@H](O)C(O)[C@H](O)[C@H]1O (some centres unmarked) [LPI16:0]	0.003369 mol percent and 0.003584 mol percent and 0.002627 mol percent
CCCCCCCCCCCCCCCCCC(=O)OC[C@@H](O)COP(=O)(O)O[C@@H]1[C@H](O)[C@H](O)[C@@H](O)[C@H](O)[C@H]1O [LPI18:0]	0.02649 mol percent and 0.03117 mol percent and 0.0307 mol percent
